The source of these data is patent publication US20210231673A1, “METHODS AND COMPOSITIONS FOR DETECTION AND QUANTIFICATION OF SMALL MOLECULES AND OTHER ANALYTES” (President and Fellows of Harvard College, priority 2018, published 2021).

Common to all, as to format: binding
The subject of assay [1] is anti-PGE2 antibody. As to the kind of experiment: Two-plex single molecule array assay for PGE2 and cortisol: PGE2. Particulars: simultaneous detection of cortisol and PGE2. On the procedure:
(§1) Carboxylated 2.7 μm paramagnetic beads (˜4×10^8), non-encoded for single-plex assays and dye-encoded (488 nm and 647 nm) for multiplex assays, were washed three times with 600 μL of bead wash buffer (0.1% TWEEN® 20 in 1× PBS, pH 7.4) and twice with 400 μL of MES buffer (50 mM MES, pH 6.2). 1 mg/mL EDC in MES buffer was freshly prepared and 200 μL was added to the beads and mixed well. The beads were activated on a shaker for 30 min. After activation, the beads were washed once with 200 μL of MES buffer. 200 μL of 10 mg/mL BSA or BSA-cortisol conjugate in MES buffer were added to the activated beads. The beads were incubated at room temperature with shaking for 2 h, and then washed three times with bead wash buffer. […] The beads were counted using a Beckman-Coulter MULTISIZER™.
(§2) A two-step assay configuration was chosen when hapten-BSA-coated beads were used. […] Images of the arrays were analyzed and AEB (average enzyme per bead) values were calculated by the software in the SIMOA HD-1 ANALYZER™.
(§3) Standard curves were obtained by plotting the signal responses (AEB and OD) against the logarithm of analyte concentrations using Origin software (Origin 9.5). […] The limit of detection (LOD) was calculated as three standard deviations (SDs) above the background. […]

For assay [2], the system named is anti-PGE2 antibody. As to the kind of experiment: Single-plex competitive single molecule array assay for PGE2 (BSA-PGE2 beads). The procedure: as §1, §2, §3
In assay [3] the test system is anti-cortisol antibody (XM210). As to the kind of experiment: Multiplex single molecule array assay for IL-6 and cortisol: cortisol (competitive). Particulars: simultaneous detection of IL-6 and cortisol. The procedure:
A two-step assay configuration was used for simultaneous detection of IL-6 and cortisol. BSA-cortisol coated beads were mixed with anti-IL6 capture beads (1:1 in number). The mixed beads were diluted to a concentration of 10,000 beads/μL. A mixture of detection antibodies, 10 pM for anti-cortisol antibody (XM210) and 1 nM for anti-IL6 detector, was prepared in Detector Diluent. A mixture of cortisol and IL-6 standards was serially diluted to desired concentrations. All the other conditions were the same as the single-plex assay.
Standard curves were obtained by plotting the signal responses (AEB and OD) against the logarithm of analyte concentrations using Origin software (Origin 9.5). The 4-parameter logistic equation y=A2+(A1−A2)/[1+(x/x0)^P] was used for curve fitting in the whole concentration range, where A1 is the maximum signal without analyte, A2 is the minimum signal at infinite concentration, p is the curve slope at the inflection point, and x0 is the IC50 (analyte concentration causing a 50% inhibition of the maximum response). The lower the IC50 is, the higher the sensitivity is. The limit of detection (LOD) was calculated as three standard deviations (SDs) above the background. All measurements were performed in triplicate. […]

Assay [4] is described as follows: Competitive single molecule array assay, BSA-cortisol MBs (two-step, single-plex). Particulars: single-plex comparison to IL-6/cortisol multiplex. The procedure: A two-step assay configuration was chosen when hapten-BSA-coated beads were used. Specifically, hapten-BSA-coated capture beads were diluted in Bead Diluent (Quanterix) to a concentration of 5,000 beads/μL. Biotinylated detector antibodies were diluted in Detector Diluent (Quanterix) to the desired concentration (1 pM for anti-cortisol antibodies, and 1 nM for anti-PGE2 antibodies). SβG concentrate was diluted to 200 pM in SβG Diluent (Quanterix). Cortisol and PGE2 standards were serially diluted to desired concentrations in Sample Diluent. The reagents including beads, detector, and SβG were placed in plastic bottles (Quanterix). The samples were loaded onto a 96-well plate (Quanterix). […] Images of the arrays were analyzed and AEB (average enzyme per bead) values were calculated by the software in the SIMOA HD-1 ANALYZER™.
as §3
We applied single molecule array assay to small molecule detection by developing a bead-based competitive protocol. […] The beads labeled with detection probes were then labeled with an enzyme, SβG, via biotin-streptavidin interaction and detected by enzymatic readout on the SIMOA™ platform. […]

The subject of assay [5] is anti-cortisol antibody. Put plainly: Two-plex single molecule array assay for PGE2 and cortisol: cortisol. Particulars: simultaneous detection of cortisol and PGE2. On the procedure: as §1, §2, §3
Assay [6] can be described thus: Conventional competitive ELISA for cortisol (BSA-cortisol coated plate). The settings on record: cortisol concentration causing 50% inhibition of maximum response. On the procedure: The high-binding 96-well microtiter plate was coated with BSA-cortisol conjugate in PBS (1 μg/mL, 100 μL/well) overnight at 4° C. After washing, the plate was blocked with 1% BSA in PBS (200 μL/well) for 1 h at room temperature and subsequently washed. Next, biotinylated anti-cortisol (10 nM, 10 μL/well) in PBS and serial concentrations of cortisol standard (0, 0.001, 0.01, 0.1, 1, 10, 100 and 1,000 ng/mL,100 μL/well) prepared in Sample Diluent were added to the wells. The immunoreaction was allowed to proceed for 1 h. After washing, the plate was incubated with streptavidin-horseradish peroxidase (HRP((2 nM, 100 μL/well) for 30 min. After another washing, 3,3′,5,5′-tetramethylbenzidine (TMB) substrate (100 μL/well) was added and the plate was incubated for 15 min. Next, 50 μL of 1 mol/L hydrochloric acid was added to each well to stop the enzymatic reaction. Finally, the optical density (OD) was recorded at 450 nm on a Tecan Infinite M200 Plate Reader.
as §3
Background: In an ELISA, binding on a coated surface is turned into a signal by an enzyme label.

On to `CCCCC[C@H](O)/C=C/[C@H]1[C@H](O)CC(=O)[C@@H]1C/C=C\CCCC(=O)O` [PGE2, Prostaglandin E2], for which the “IC50 for PGE2, two-plex assay” value in assay [1] stood at 0.7 ng/mL. Besides, the “IC50 for PGE2, single-plex assay” value in assay [2] stood at 0.37 ng/mL.

On to `C[C@]12CCC(=O)C=C1CC[C@@H]1[C@@H]2[C@@H](O)C[C@@]2(C)[C@H]1CC[C@]2(O)C(=O)CO` [cortisol], for which the “IC50 for cortisol, multiplex assay with IL-6” value in assay [3] was determined as 0.57 ng/mL. Moreover, in assay [4], the “IC50 for cortisol, single-plex assay” value came out at 0.54 ng/mL. In addition, in assay [5], the “IC50 for cortisol, two-plex assay” value came to 0.46 ng/mL. In addition, the “ELISA IC50” value in assay [6] is on record as 170.23 ng/mL.
